Results from US20250134870A1, “PATHWAY MODULATOR, PHARMACEUTICAL COMPOSITION HAVING SAME, USE THEREOF, AND THERAPEUTIC METHOD USING SAME” (Jiangsu Yahong Meditech Co., Ltd., priority 2021, published 2025).

Key:
[1] = Body weight and weight change rate of EAU rats (Example 6); type: in vivo, Lewis rats
Text: Wherein, Day 0 referred to the day of immunization. The body weight of each rat was monitored twice a week after immunization.
Dosing started from Day 0 accurately according to the animal body weight for a total of 16 days.

[2] = test system: NMO-IgG-induced neuromyelitis optica; test: NMO-IgG-induced neuromyelitis optica (NMO) in mice: AQP4, GFAP, IBA1, CD45 (Example 7); type: in vivo, C57 mice; conditions: 50 and 100 mg/kg PO QD × 10 days
Description: 1) C57 female mice (6 to 8 weeks old) were anesthetized with intraperitoneal injection of 5% chloral hydrate (70 μL/10 g).
2) Fur of the top of head was removed to expose the scalp. The mouse head was fixed on the brain stereotaxic apparatus, keeping the top of the skull horizontal. The scalp was disinfected with iodophor.
3) The scalp was cut lengthwise for about 0.5 cm to search for the anterior and posterior fontanelle areas. The stereotaxic caliper was rotated to move the needle tip of trace syringe to the anterior and posterior fontanelle areas, and the mouse skull was kept horizontal by observing the distance from Bregma and Lambda to the needle tip. After horizontal adjustment, the needle tip was moved to Bregma and then moved 2 mm to the right to reach the position.
4) The position on the surface of the mouse skull was marked and a hole was drilled at this point with a skull drill. During drilling, blood vessels should be avoided and drilling should be continued carefully to avoid damaging the duramater and brain tissue.
5) The trace syringe was vertically introduced into the mouse brain tissue using the stereotaxic apparatus with a vertical needle depth of 3 mm. The syringe was kept in place and maintained for 5 min.
6) The syringe pump was turned on, the Infuse Only mode was selected, and the solution (2 μL NMO-IgG+3 μL human complement+5 μL PBS/drug, mixed and pipetted well in advance, and placed on ice) was injected at a speed of […].
7) After the injection was completed, the syringe was maintained for 10 min. The syringe was slowly pulled upward by rotating the caliper, and maintained for 5 min after moving 1 mm upward, until the syringe was completely pulled out. The skin was sutured and disinfected again with iodophor.
Dosing started 3 days before model establishment and lasted until 7 days after model establishment, for 10 consecutive days.
On Day 8 after model establishment (i.e., the day after the last dose), the experimental mice were euthanized and brain tissue was collected for frozen sections. Then, the immune response area of astrocyte markers in each group of mice was determined and evaluated (see the reference Ye Gong et al., Journal of Neuroinflammation, 17 (1). doi:10.1186/s12974-020-01874-6 for experimental methods).

[3] = test system: peripheral blood cells; test: Bleomycin-induced skin fibrosis in mice: blood routine test of peripheral blood (Example 5); type: in vivo, male C57BL/6 mice
Description: Animals were weighed at the experimental endpoints and the body weight was recorded to calculate the volume of administration. 6 h after dosing, firstly, whole blood was collected from the orbital venous plexus of mice and subjected to blood routine test using an automated Hematology analyzer (Sysmex XS-800i). The specific test steps were as follows: the blood sample in the test tube was thoroughly mixed before testing; the sample was placed under the sampling needle, then injected by pressing the start button, and removed after indicator light of the instrument was off; the instrument started to automatically test the sample and output the results.

[4] = test system: dextran sulfate sodium (DSS)-induced colitis; test: DSS-induced colitis in mice: body weight, DAI score, colon density (Examples 1, 3); type: in vivo, C57BL/6J mice
Description: 8-10 week old female C57BL/6J mice purchased from Charles River Laboratories were used. The mice were housed in a room at constant temperature (20+2° C.) (5 mice per cage) with a 12-hour light-dark cycle. All protocols were approved by the Institutional Animal Care and Use Committee of WuXi AppTec. These mice were adapted to the housing conditions at the animal experiment center of WuXi AppTec for at least three days prior to the experiment. […] At the experimental endpoint (see hereinafter), mice were euthanized and endpoint samples were obtained. Mice in the normal group were not given 3% DSS aqueous solution to induce colitis and were free to drink blank water. […] The animal body weight and DAI score were assessed under double-blind conditions, that is, the researchers collected the body weight data of mice and observed and scored the stool characteristics and blood stools every day, without knowing the group and dosing regimen. The DAI score was the sum of the weight loss score, stool score and bleeding score. […] The data were analyzed by analysis of variance, specifically by using the following process: using Graph Pad Prism 6.0 software to carry out post-hoc Dunnett's multiple comparison test. […] Data were expressed as mean±S.E.M. The experimental endpoint was 24 hours after administration on Day 8 for the positive drug control group and the Test group 1 #to Test group 7 #of Example 1; the experimental endpoint of the normal group and the solvent group was the same as that of the positive drug control group and Test group 1 #to Test group 7 #.

[5] = test system: congestive heart failure; conditions: cited from earlier work
[6] = 100 mg/kg PO QD, 28 days (Test group 3#) vs solvent group

NCc1c[nH]c(=S)n1[C@H]1CCc2c(F)cc(F)cc2C1 [Nepicastat]
Rat body weight ([1]; Day 2, 25 mg/kg PO QD): 193.95 g
Weight change rate (%) ([1]; Day 2, 25 mg/kg PO QD): 3.25%
Rat body weight ([1]; Day 2, 50 mg/kg PO QD): 194.04 g
Weight change rate (%) ([1]; Day 2, 50 mg/kg PO QD): 2.53%
Rat body weight ([1]; Day 2, 100 mg/kg PO QD): 194.02 g
Weight change rate (%) ([1]; Day 2, 100 mg/kg PO QD): 2.11%
Rat body weight ([1]; Day 6, 25 mg/kg PO QD): 204.67 g
Weight change rate (%) ([1]; Day 6, 25 mg/kg PO QD): 7.06%
Rat body weight ([1]; Day 6, 50 mg/kg PO QD): 202.28 g
Weight change rate (%) ([1]; Day 6, 50 mg/kg PO QD): 6.90%
Rat body weight ([1]; Day 6, 100 mg/kg PO QD): 205.97 g
Weight change rate (%) ([1]; Day 6, 100 mg/kg PO QD): 8.45%
Rat body weight ([1]; Day 9, 25 mg/kg PO QD): 207.81 g
Weight change rate (%) ([1]; Day 9, 25 mg/kg PO QD): 9.26%
Rat body weight ([1]; Day 9, 50 mg/kg PO QD): 206.07 g
Weight change rate (%) ([1]; Day 9, 50 mg/kg PO QD): 8.83%
Rat body weight ([1]; Day 9, 100 mg/kg PO QD): 214.36 g
Weight change rate (%) ([1]; Day 9, 100 mg/kg PO QD): 12.84%
Rat body weight ([1]; Day 13, 25 mg/kg PO QD): 214.28 g
Weight change rate (%) ([1]; Day 13, 25 mg/kg PO QD): 12.23%
Rat body weight ([1]; Day 13, 50 mg/kg PO QD): 216.20 g
Weight change rate (%) ([1]; Day 13, 50 mg/kg PO QD): 14.24%
Rat body weight ([1]; Day 13, 100 mg/kg PO QD): 223.98 g
Weight change rate (%) ([1]; Day 13, 100 mg/kg PO QD): 17.96%
Rat body weight ([1]; Day 16, 25 mg/kg PO QD): 219.00 g
Weight change rate (%) ([1]; Day 16, 25 mg/kg PO QD): 12.36%
Rat body weight ([1]; Day 16, 50 mg/kg PO QD): 218.42 g
Weight change rate (%) ([1]; Day 16, 50 mg/kg PO QD): 15.41%
Rat body weight ([1]; Day 16, 100 mg/kg PO QD): 227.40 g
Weight change rate (%) ([1]; Day 16, 100 mg/kg PO QD): 19.77%
Rat body weight ([1]; Day −1, 25 mg/kg PO QD): 188.31 g
Weight change rate (%) ([1]; Day −1, 25 mg/kg PO QD): 0.00%
Rat body weight ([1]; Day −1, 50 mg/kg PO QD): 189.34 g
Weight change rate (%) ([1]; Day −1, 50 mg/kg PO QD): 0.00%
Rat body weight ([1]; Day −1, 100 mg/kg PO QD): 189.92 g
Weight change rate (%) ([1]; Day −1, 100 mg/kg PO QD): 0.00%
effect on NMO-IgG-induced neuromyelitis optica in mice [2]: certain inhibitory effect
immune parameter CD45 [2]: no significant effect
immune parameter IBA1 [2]: no significant effect
lesion ratio of AQP4 ([2]; vs control group): significantly reduce the lesion ratio
lesion ratio of GFAP ([2]; vs control group): significantly reduce the lesion ratio
lymphocytes in peripheral blood [3, 6]: significant differences in reducing
monocytes in peripheral blood [3, 6]: significant differences in reducing
neutrophils in peripheral blood [3, 6]: significant differences in reducing
number of increased inflammatory cells in peripheral blood after bleomycin stimulation ([3]; 50 and 100 mg/kg PO QD, 28 days (Test groups 2#, 3#)): reduce the number of increased inflammatory cells in peripheral blood
Body weight on Day 7, g ([4]; 30 mg/kg PO QD × 8 days): 19.71 g
Body weight on Day 8, g ([4]; 30 mg/kg PO QD × 8 days): 18.88 g
Body weight on Day 8/initial body weight, % ([4]; 30 mg/kg PO QD × 8 days): 90.68%
DAI score on Day 8 ([4]; 30 mg/kg PO QD × 8 days): 5.30
severity of DSS-induced colitis and disease activity ([4]; Nepicastat 30, Etamicastat 100, Zamicastat 100 mg/kg PO QD × 8 days (Test groups 1#, 4#, 7#) vs solvent group): ameliorated the severity of DSS-induced colitis and reduced disease activity
effect in the treatment of heart failure ([5]; further clinical studies): no effect in the treatment of heart failure
tolerability ([5]; patients, congestive heart failure): well tolerated in patients
